{"source": "patent US20220290095A1", "about": "“Bifidobacterium breve CCFM1025, Food Fermented Thereby and Application Thereof” (Jiangnan University, priority 2018, published 2022)", "key": {"5-HT in the serum": {"test_system": "5-HT in the serum", "experiment": "5-HT in serum of depressed mice (ELISA)", "type": "in vivo, C57BL/6J mice", "conditions": "concluded from serum 5-HT, FIG. 4", "experimental": "(§1) 32 6-week-old male C57BL/6J mice were selected. After one week of adaptation to the environment, the mice were randomly divided into four groups according to body weight: a control group, a model group, a fluoxetine intervention group, and a CCFM1025 intervention group, each containing 8 mice.\n(§2) Chronic unpredictable stress depression mouse model: 1-2 kinds of stimuli were randomly performed every day, and the performance time of stimuli every day was determined randomly to avoid the circadian rhythm. Each method was used for not more than three times, and the stimuli were performed for five weeks. The stimuli include: (1) fasting for 24 h; (2) water deprivation+empty bottle stimulus for 24 h; (3) tail pinching for 3 min; (4) wet padding for 24 h; (5) immobilization for 1-2 h; (6) […] for 24 h; (7) continuous lighting for 24 h; (8) no padding for 24 h; (9) forced swim for 15 min; and (10) separation for 24 h.\nLactic acid bacteria gavage: the activated second generation of Bifidobacterium CCFM1025 was taken and cultured at 37° C. for 24 h, and the bacteria were collected after centrifugation at 4° C. and 8000 r/min for 3 min. […]\nThe serum collected in Example 3 was taken and the content of 5-HT in the serum was measured using an ELISA kit. […]"}, "[1]": {"test_system": "depressed mice (chronic unpredictable stress depression mouse model)", "experiment": "Depression-like behaviors of depressed mice (behavioral tests overall)", "type": "in vivo, C57BL/6J mice", "experimental": "as §1, §2\nLactic acid bacteria gavage: the activated second generation of Bifidobacterium CCFM1025 was taken and cultured at 37° C. for 24 h, and the bacteria were collected after centrifugation at 4° C. and 8000 r/min for 3 min. The supernatant was discarded and the bacteria were resuspended with 5% sterilized skim milk to make the concentration of lactic acid bacteria reach 5×10^9 CFU/mL. The gavage volume is 0.2 mL/mouse/day. […]"}}}
{"smiles": "CNCCC(Oc1ccc(C(F)(F)F)cc1)c1ccccc1", "note": "(centres unmarked) [fluoxetine]", "values": [{"measurement": "intestinal peristalsis / intestinal function", "setting": "5-HT in the serum", "result": "cannot improve the intestinal function"}, {"measurement": "depression-like behaviors / antidepressant effect", "setting": "[1]", "result": "has an antidepressant effect"}]}
